In US20210393633A1, “INHIBITORS OF HUMAN IMMUNODEFICIENCY VIRUS REPLICATION” (ViiV HEALTHCARE UK (NO.5) LIMITED, priority 2018, published 2021):

Assays:
[1] = tested on: recombinant NL4-3 virus (nef section replaced with Renilla luciferase gene) in MT-2 cells; assay: HIV cell culture assay (antiviral activity, luciferase readout in infected MT-2 cells); type: cell-based; settings: NL43
Method: HIV cell culture assay—MT-2 cells, 293T cells and the proviral DNA clone of NL4-3 virus were obtained from the NIH AIDS Research and Reference Reagent Program. MT-2 cells were propagated in RPMI 1640 media supplemented with 10% heat inactivated fetal bovine serum (FBS), […]. The 293T cells were propagated in DMEM media supplemented with 10% heat inactivated FBS, […]. A recombinant NL4-3 proviral clone, in which a section of the nef gene was replaced with the Renilla luciferase gene, was used to make the reference virus used in these studies. The recombinant virus was prepared through transfection of the recombinant NL4-3 proviral clone into 293T cells using Transit-293 Transfection Reagent from Minis Bio LLC (Madison, Wis.). Supernatent was harvested after 2-3 days and the amount of virus present was titered in MT-2 cells using luciferase enzyme activity as a marker by measuring luciferase enzyme activity. Luciferase was quantitated using the EnduRen Live Cell Substrate from Promega (Madison, Wis.). Antiviral activities of compounds toward the recombinant virus were quantified by measuring luciferase activity in MT-2 cells infected for 4-5 days with the recombinant virus in the presence of serial dilutions of the compound.
The 50% effective concentration (EC5o) was calculated by using the exponential form of the median effect equation where (Fa)=1/[1+(ED50/drug conc.)m] (Johnson Va., Byington R T. Infectivity Assay. In Techniques in HIV Research. ed. Aldovini A, Walker B D. 71-76. New York: Stockton Press.1990). The 50% inhibitory concentration (EC50) was calculated by using the exponential form of the median effect equation where percent inhibition=1/[1 +(EC50/drug concentration)m], where m is a parameter that reflects the slope of the concentration-response curve.

[2] = Compound cytotoxicity, XTT-based colorimetric assay; type: cell-based; settings: human; uninfected MT2 cells, day 4, XTT
Method: Compound cytotoxicity and the corresponding CC50 values were determined using the same protocol as described in the antiviral assay except that uninfected cells were used. Cytotoxicity was assessed on day 4 in uninfected MT2 cells by using a XTT (2,3-bis[2-Methoxy-4-nitro-5-sulfophenyl]-2H-tetrazolium-5-carboxyanilide inner salt)-based colorimetric assay (Sigma-Aldrich, St Louis, Mo).

In the case of `C[C@@H]1CC(c2ccc3c(=O)n(-c4ccc(Cl)c5c(NS(C)(=O)=O)nn(C)c45)c([C@H](Cc4cc(F)cc(F)c4)NC(=O)Cn4nc(C(F)F)c5c4C(F)(F)[C@@H]4C[C@H]54)nc3c2)C[C@H](C)O1` (stereo partly drawn) [Example 22, N-((1S)-1-((3P)-3-(4-chloro-1-methyl-3-(methylsulfonamido)-1H-indazol-7-yl)-7-((2R,6S)-2,6-dimethyltetrahydro-2H-pyran-4-yl)-4-oxo-3,4-dihydroquinazolin-2-yl)-2-(3,5-difluorophenyl)ethyl)-2-((3bS,4aR)-3-(difluoromethyl)-5,5-difluoro-3b,4,4a,5-tetrahydro-1H-cyclopropa[3,4]cyclopenta[1,2-c]pyrazol-1-yl)acetamide], the EC50 [1] is reported as 0.082 nM and the CC50 at 4 day [2] is reported as > 500 nM.
